The record followed here is PMC5215806 (Chemical Science, 2016).

Assay [1] concerns FzmM (His6-FzmM). As to the kind of experiment: steady-state kinetics of N-hydroxylation. It counts as biochemical, Streptomyces sp. NRRL S-149. The following applies: read-out: Km (apparent); co-substrates O2, NADPH, FAD.
Assay [2] concerns FzmQ (His6-FzmQ). As to the kind of experiment: spectrophotometric assay of CoA formation. It counts as biochemical, Streptomyces sp. NRRL S-149. The following applies: read-out: Km (apparent); co-substrate acetyl-CoA.

The Km is the substrate concentration at which the rate is half of its maximum. On to `N[C@@H](CC(=O)O)C(=O)O` [L-Asp], for which the Km in assay [1] was 790 ± 70 µM.

`NNC(CC(=O)O)C(=O)O` (centres unmarked) [hydrazinosuccinate]: the Km in assay [2] came out at 4.2 ± 0.8 µM.
